# From article PMC5423977, “Safety, pharmacokinetics, and pharmacodynamics of BMS-986142, a novel reversible BTK inhibitor, in healthy participants” (European Journal of Clinical Pharmacology, 2017)
# Test: Safety and tolerability (adverse events), Study 1 SAD in healthy participants
# Format: in vivo, human
# Details: n = 6
structure (smiles),measurement,setting,value
"Cc1c(-c2c(F)cc(C(N)=O)c3[nH]c4c(c23)CC[C@H](C(C)(C)O)C4)cccc1-n1c(=O)c2cccc(F)c2n(C)c1=O [BMS-986142, 6-fluoro-5-(R)-(3-(S)-(8-fluoro-1-methyl-2,4-dioxo-1,2-dihydroquinazolin-3(4H)-yl)-2-methylphenyl)-2-(S)-(2-hydroxypropan-2-yl)-2,3,4,9-tetrahydro-1H-carbazole-8-carboxamide]",AE SOC: Gastrointestinal Disorders,SAD 5 mg,0 n (%)
same,AE SOC: General disorders and administration site conditions,SAD 5 mg,0 n (%)
same,AE SOC: Infections and infestations,SAD 5 mg,0 n (%)
same,"AE SOC: Injury, poisoning and procedural complications",SAD 5 mg,0 n (%)
same,AE SOC: Musculoskeletal and connective tissue disorders,SAD 5 mg,0 n (%)
same,AE SOC: Nervous system disorders,SAD 5 mg,0 n (%)
same,AE SOC: Renal and urinary disorders,SAD 5 mg,0 n (%)
same,"AE SOC: Respiratory, thoracic and mediastinal disorders",SAD 5 mg,0 n (%)
same,AE: Aphthous stomatitis,SAD 5 mg,0 n (%)
same,AE: Chest pain,SAD 5 mg,0 n (%)
same,AE: Contusion,SAD 5 mg,0 n (%)
same,AE: Cough,SAD 5 mg,0 n (%)
same,AE: Diarrhoea,SAD 5 mg,0 n (%)
same,AE: Dizziness,SAD 5 mg,0 n (%)
same,AE: Headache,SAD 5 mg,0 n (%)
same,AE: Lip Dry,SAD 5 mg,0 n (%)
same,AE: Muscle spasms,SAD 5 mg,0 n (%)
same,AE: Nausea,SAD 5 mg,0 n (%)
same,AE: Paraesthesia,SAD 5 mg,0 n (%)
same,AE: Polyuria,SAD 5 mg,0 n (%)
same,AE: Syncope,SAD 5 mg,0 n (%)
same,AE: Tension headache,SAD 5 mg,0 n (%)
same,AE: Thermal burn,SAD 5 mg,0 n (%)
same,AE: Toothache,SAD 5 mg,0 n (%)
same,AE: Upper respiratory tract infection,SAD 5 mg,0 n (%)
same,AE: Vomiting,SAD 5 mg,0 n (%)
same,Total participants with an event,SAD 5 mg,0 n (%)
same,AE SOC: Gastrointestinal Disorders,SAD 15 mg,1 (16.7) n (%)
same,AE SOC: General disorders and administration site conditions,SAD 15 mg,0 n (%)
same,AE SOC: Infections and infestations,SAD 15 mg,0 n (%)
same,"AE SOC: Injury, poisoning and procedural complications",SAD 15 mg,0 n (%)
same,AE SOC: Musculoskeletal and connective tissue disorders,SAD 15 mg,0 n (%)
same,AE SOC: Nervous system disorders,SAD 15 mg,0 n (%)
same,AE SOC: Renal and urinary disorders,SAD 15 mg,0 n (%)
same,"AE SOC: Respiratory, thoracic and mediastinal disorders",SAD 15 mg,0 n (%)
same,AE: Aphthous stomatitis,SAD 15 mg,1 (16.7) n (%)
same,AE: Chest pain,SAD 15 mg,0 n (%)
same,AE: Contusion,SAD 15 mg,0 n (%)
same,AE: Cough,SAD 15 mg,0 n (%)
same,AE: Diarrhoea,SAD 15 mg,0 n (%)
same,AE: Dizziness,SAD 15 mg,0 n (%)
same,AE: Headache,SAD 15 mg,0 n (%)
same,AE: Lip Dry,SAD 15 mg,0 n (%)
same,AE: Muscle spasms,SAD 15 mg,0 n (%)
same,AE: Nausea,SAD 15 mg,0 n (%)
same,AE: Paraesthesia,SAD 15 mg,0 n (%)
same,AE: Polyuria,SAD 15 mg,0 n (%)
same,AE: Syncope,SAD 15 mg,0 n (%)
same,AE: Tension headache,SAD 15 mg,0 n (%)
same,AE: Thermal burn,SAD 15 mg,0 n (%)
same,AE: Toothache,SAD 15 mg,0 n (%)
same,AE: Upper respiratory tract infection,SAD 15 mg,0 n (%)
same,AE: Vomiting,SAD 15 mg,0 n (%)
same,Total participants with an event,SAD 15 mg,1 (16.7) n (%)
same,AE SOC: Gastrointestinal Disorders,SAD 50 mg,0 n (%)
same,AE SOC: General disorders and administration site conditions,SAD 50 mg,0 n (%)
same,AE SOC: Infections and infestations,SAD 50 mg,1 (16.7) n (%)
same,"AE SOC: Injury, poisoning and procedural complications",SAD 50 mg,1 (16.7) n (%)
same,AE SOC: Musculoskeletal and connective tissue disorders,SAD 50 mg,1 (16.7) n (%)
same,AE SOC: Nervous system disorders,SAD 50 mg,2 (33.3) n (%)
same,AE SOC: Renal and urinary disorders,SAD 50 mg,0 n (%)
same,"AE SOC: Respiratory, thoracic and mediastinal disorders",SAD 50 mg,0 n (%)
same,AE: Aphthous stomatitis,SAD 50 mg,0 n (%)
same,AE: Chest pain,SAD 50 mg,0 n (%)
same,AE: Contusion,SAD 50 mg,1 (16.7) n (%)
same,AE: Cough,SAD 50 mg,0 n (%)
same,AE: Diarrhoea,SAD 50 mg,0 n (%)
same,AE: Dizziness,SAD 50 mg,0 n (%)
same,AE: Headache,SAD 50 mg,2 (33.3) n (%)
same,AE: Lip Dry,SAD 50 mg,0 n (%)
same,AE: Muscle spasms,SAD 50 mg,1 (16.7) n (%)
same,AE: Nausea,SAD 50 mg,0 n (%)
same,AE: Paraesthesia,SAD 50 mg,0 n (%)
same,AE: Polyuria,SAD 50 mg,0 n (%)
same,AE: Syncope,SAD 50 mg,0 n (%)
same,AE: Tension headache,SAD 50 mg,0 n (%)
same,AE: Thermal burn,SAD 50 mg,1 (16.7) n (%)
same,AE: Toothache,SAD 50 mg,0 n (%)
same,AE: Upper respiratory tract infection,SAD 50 mg,1 (16.7) n (%)
same,AE: Vomiting,SAD 50 mg,0 n (%)
same,Total participants with an event,SAD 50 mg,2 (33.3) n (%)
same,AE SOC: Gastrointestinal Disorders,SAD 100 mg,1 (16.7) n (%)
same,AE SOC: General disorders and administration site conditions,SAD 100 mg,0 n (%)
same,AE SOC: Infections and infestations,SAD 100 mg,0 n (%)
same,"AE SOC: Injury, poisoning and procedural complications",SAD 100 mg,0 n (%)
same,AE SOC: Musculoskeletal and connective tissue disorders,SAD 100 mg,0 n (%)
same,AE SOC: Nervous system disorders,SAD 100 mg,1 (16.7) n (%)
same,AE SOC: Renal and urinary disorders,SAD 100 mg,1 (16.7) n (%)
same,"AE SOC: Respiratory, thoracic and mediastinal disorders",SAD 100 mg,0 n (%)
same,AE: Aphthous stomatitis,SAD 100 mg,0 n (%)
same,AE: Chest pain,SAD 100 mg,0 n (%)
same,AE: Contusion,SAD 100 mg,0 n (%)
same,AE: Cough,SAD 100 mg,0 n (%)
same,AE: Diarrhoea,SAD 100 mg,0 n (%)
same,AE: Dizziness,SAD 100 mg,0 n (%)
same,AE: Headache,SAD 100 mg,0 n (%)
same,AE: Lip Dry,SAD 100 mg,0 n (%)
same,AE: Muscle spasms,SAD 100 mg,0 n (%)
same,AE: Nausea,SAD 100 mg,0 n (%)
same,AE: Paraesthesia,SAD 100 mg,0 n (%)
